Data from patent publication EP2444091B1, “USE OF T[…] MELIA AZEDARACH EXTRACTS FOR PREVENTING OR TREATING DEMENTIA” (Ildong Pharm Co., Ltd., priority 2009, dated 2010).

How the values were obtained:
[1] = test system: APPα and APPβ (APP metabolites); assay: APPα and APPβ production in culture medium by western blot, BA-3 cell line overexpressing BACE1 and APP695; format: cell-based
Description: A HEK293-derived BA-3 cell line overexpressing BACE1(β-secretase) and APP695 was plated on 6-well plate by using DMEM (Dulbecco's Modified Eagle's Medium) including 10% fetal bovin serum (FBS) in such a manner that it occupied 80% or more of the area in each well, and then was cultured for 1 day. After the removal of the culture medium, free DMEM (not including fetal bovine serum) was heated to 37°C, and added in an amount of 0.9ml to each well. Then, toosendanin or a toosendan fructus fraction extracted with each solvent was diluted to an appropriate concentration by 0.1ml free DMEM, and the cell line was treated with these materials, and cultured for 24 hours. 0.2ml of the culture medium treated with each test sample was collected, and subjected to electrophoresis by 8% SDS-PAGE (polyacrylamide gel electrophoresis). Then, AB1560(monoclonal) and Rb53(polyclonal) antibodies (antibodies against APPα and APPβ) were used to measure the amounts of APPα and APPβ within the culture medium through western blotting.
Extracts (ethyl alcohol, methanol, ethyl acetate, and 90% methanol) of meliae cortex (bark of chinaberry) were obtained under the same organic solvent extraction condition of toosendan fructus. Then, their effects on APPβ production reduction were tested.
On the toosendan fructus ethyl alcohol extract obtained from Example 9-1, an APPβ production reducing effect, an APPα production promoting effect, and an Aβ production inhibiting effect were measured in the same manner as described in Example 5.

[2] = test system: Aβ40; assay: Aβ40 quantification in rat serum before/after oral administration; format: in vivo; details: 5mg/kg oral, blood after two hours
Description: Before administration of toosendanin, blood was secured. Then, toosendanin suspended in 20% ethyl alcohol was orally administered in doses of 5 and 50mg/kg. After two hours, the blood was collected, and the concentration change of Aβ within the blood before/after administration was measured. The collected blood was centrifuged (16,000×g, 20 minutes, 4°C), and Aβ40 within the collected serum was quantified by using an Aβ40 quantitative analysis kit (Mouse/Rat Amyloidβ (1-40) High Specific Assay Kit, IBL, Japan).

[3] = concentration of 12.5nM or less

CC(=O)O[C@@H]1C[C@H](O)[C@@]23CO[C@@H](O)[C@]1(C)[C@@H]2C[C@@H](O)[C@]1(C)[C@@H]3C(=O)[C@H](OC(C)=O)[C@@]2(C)[C@H](c3ccoc3)C[C@H]3O[C@]321 [toosendanin]
production of APPα with respect to a non-treated group ([1]; at 0.8uM, 24 hours): 141.5%
production of APPβ with respect to a non-treated group ([1]; at 0.8uM, 24 hours): 17.8%
production of APPα [1, 3]: promoting the production of APPα
production of APPβ [1, 3]: inhibited the production of APPβ
inhibition of Aβ40 in serum [2]: ≥ 85%
